These results are taken from US20220409631A1, “METHODS OF INDUCING OR ENHANCING FARNESOID X RECEPTOR (FXR)-MEDIATED TRANSCRIPTIONAL RESPONSE” (YALE UNIVERSITY, priority 2019, published 2022).

Common to all, as to assay type: cell-based
The test system of assay [1] is other hormone receptor signaling pathways. Briefly: Selectivity for different hormone receptor signaling pathways (panel).
The target of the next assay is T1, FXR (Homo sapiens, UniProt Q96RI1).
T1 construct: HepG2 cells were stably transfected with either FXR reporter DNA; endogenous in cells; host or cells: HepG2 cells stably transfected with a 3x FXR response element PGL4.2 luciferase reporter
T1 sequence (Q96RI1 1-486): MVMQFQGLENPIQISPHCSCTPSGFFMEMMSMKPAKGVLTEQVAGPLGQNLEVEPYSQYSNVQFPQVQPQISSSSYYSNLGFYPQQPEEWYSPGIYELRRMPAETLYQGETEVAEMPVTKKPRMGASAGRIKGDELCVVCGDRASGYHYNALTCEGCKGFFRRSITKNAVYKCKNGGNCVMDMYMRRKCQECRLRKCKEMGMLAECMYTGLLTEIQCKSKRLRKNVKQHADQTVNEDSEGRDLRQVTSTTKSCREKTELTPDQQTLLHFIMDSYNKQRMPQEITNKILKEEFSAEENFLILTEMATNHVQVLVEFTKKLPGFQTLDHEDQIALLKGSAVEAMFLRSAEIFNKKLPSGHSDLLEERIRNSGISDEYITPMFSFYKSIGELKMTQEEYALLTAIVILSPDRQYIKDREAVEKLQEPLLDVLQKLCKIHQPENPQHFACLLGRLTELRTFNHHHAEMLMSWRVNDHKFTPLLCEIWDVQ
Briefly: FXR luciferase reporter assay in HepG2 reporter cells. Conditions: for EC50: no ligand added, read-out: FXR (stimulation EC50). The method, then:
FXR luciferase reporter cells—FXR luciferase reporter cells—HepG2 cancer cells were used in the screening study. HepG2 cells were stably transfected with either FXR reporter DNA in which 3 repeated response element ([…])(SEQ ID NO:2) was inserted in-PGL4.2 luciferase reporter plasmid or LXR reporter DNA in which 3 repeated response element ([…])(SEQ ID NO:3) was inserted in PGL4.2 luciferase reporter plasmid. Reporter cells were selected by puromycin (1 ug/mL) in RPMI-1640 medium with 10% FBS.
Luciferase assay—Reporter cells were treated with compounds at 0, 10, 20, 40, and […] for 24h in a 37° C.-CO2 incubator with or without chenodeoxycholic acid (CDCA) for FXR reporter cells or GW3965 for LXR reporter cells. Cells were lysed using luciferase lysis buffer after which luciferase buffer with luciferin was added to generate luminescence. Luminescence was recorded using a luminescence microplate reader.
(In general: In a reporter assay the amount or activity of a reporter protein is the signal.)

For another assay, the target named is T2, ER-α (Homo sapiens, UniProt P03372).
T2 sequence (P03372 1-595): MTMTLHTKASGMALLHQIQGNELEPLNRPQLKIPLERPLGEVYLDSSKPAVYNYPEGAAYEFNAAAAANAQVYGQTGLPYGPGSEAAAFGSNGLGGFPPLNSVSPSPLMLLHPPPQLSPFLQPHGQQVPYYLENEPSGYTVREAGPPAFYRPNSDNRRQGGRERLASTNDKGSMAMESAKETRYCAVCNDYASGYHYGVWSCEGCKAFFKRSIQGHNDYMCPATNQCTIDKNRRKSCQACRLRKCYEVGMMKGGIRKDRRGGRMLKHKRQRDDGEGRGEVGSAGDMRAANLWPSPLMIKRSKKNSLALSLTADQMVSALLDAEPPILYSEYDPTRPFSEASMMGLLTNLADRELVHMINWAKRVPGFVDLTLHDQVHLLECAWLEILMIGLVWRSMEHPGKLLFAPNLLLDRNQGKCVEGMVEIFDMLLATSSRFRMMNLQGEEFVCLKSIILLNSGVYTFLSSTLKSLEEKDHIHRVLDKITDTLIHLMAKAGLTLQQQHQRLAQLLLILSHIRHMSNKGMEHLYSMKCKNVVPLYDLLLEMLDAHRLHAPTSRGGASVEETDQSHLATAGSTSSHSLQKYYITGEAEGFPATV
Description: Hormone receptor signaling pathway selectivity: ER-α mediated transcriptional response. Conditions: with E2.

The target of another assay is T3, AR (Homo sapiens, UniProt P10275).
T3 sequence (P10275 1-920): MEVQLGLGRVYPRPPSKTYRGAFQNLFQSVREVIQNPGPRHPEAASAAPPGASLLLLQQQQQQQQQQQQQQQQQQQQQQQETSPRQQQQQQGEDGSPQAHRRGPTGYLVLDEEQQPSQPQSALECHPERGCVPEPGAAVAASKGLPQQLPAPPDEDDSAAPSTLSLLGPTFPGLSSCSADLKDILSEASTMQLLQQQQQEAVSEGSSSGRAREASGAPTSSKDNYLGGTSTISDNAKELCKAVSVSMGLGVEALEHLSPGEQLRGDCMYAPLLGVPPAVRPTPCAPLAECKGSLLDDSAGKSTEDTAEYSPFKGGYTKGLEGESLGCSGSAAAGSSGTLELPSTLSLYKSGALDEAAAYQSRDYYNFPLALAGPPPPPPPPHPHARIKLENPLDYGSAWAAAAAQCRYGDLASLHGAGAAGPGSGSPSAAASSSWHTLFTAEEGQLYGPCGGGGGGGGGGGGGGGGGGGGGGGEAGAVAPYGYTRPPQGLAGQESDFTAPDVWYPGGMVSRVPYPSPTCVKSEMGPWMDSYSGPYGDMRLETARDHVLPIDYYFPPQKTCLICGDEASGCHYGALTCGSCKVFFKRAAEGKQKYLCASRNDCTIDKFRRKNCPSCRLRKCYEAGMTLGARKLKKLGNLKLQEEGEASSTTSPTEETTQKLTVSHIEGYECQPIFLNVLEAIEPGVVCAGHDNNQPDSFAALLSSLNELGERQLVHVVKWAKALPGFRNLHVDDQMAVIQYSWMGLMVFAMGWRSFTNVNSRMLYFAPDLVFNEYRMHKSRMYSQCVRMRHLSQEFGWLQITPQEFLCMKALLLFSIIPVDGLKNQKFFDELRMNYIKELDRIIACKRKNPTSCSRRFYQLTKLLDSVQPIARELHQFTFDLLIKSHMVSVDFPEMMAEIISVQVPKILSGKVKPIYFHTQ
Description: Hormone receptor signaling pathway selectivity: AR. The conditions noted are these: with DHT.

The target in the next assay is T4, VDR (Homo sapiens, UniProt P11473).
T4 sequence (P11473 1-427): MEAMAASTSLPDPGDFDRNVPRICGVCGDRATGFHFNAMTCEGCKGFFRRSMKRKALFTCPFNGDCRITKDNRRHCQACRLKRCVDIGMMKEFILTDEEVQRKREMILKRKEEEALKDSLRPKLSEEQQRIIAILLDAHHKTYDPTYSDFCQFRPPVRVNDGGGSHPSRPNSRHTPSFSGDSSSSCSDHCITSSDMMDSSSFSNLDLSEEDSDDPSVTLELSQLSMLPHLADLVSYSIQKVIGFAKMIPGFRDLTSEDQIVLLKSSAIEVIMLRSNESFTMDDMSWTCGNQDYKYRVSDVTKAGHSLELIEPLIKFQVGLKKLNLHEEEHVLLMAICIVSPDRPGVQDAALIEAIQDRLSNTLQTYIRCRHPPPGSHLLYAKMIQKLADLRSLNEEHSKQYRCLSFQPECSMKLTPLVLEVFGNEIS
Briefly: Hormone receptor signaling pathway selectivity: VDRE (VDR). Conditions: for IC50: with VD3; for EC50: biphasic model of action, read-out: EC50, stimulation of VDR activity.

In another assay the test system is BACS. Briefly: RT-qPCR for FXR target genes in HepG2 cells: BACS. The method, then:
Real Time Quantitative PCR (RT-qPCR)—Real Time Quantitative PCR (RT-qPCR) for FXR target genes: RNA was extracted from NZZ compounds treated cells using the Roche High Pure RNA isolation kit. cDNA was then generated from RNA samples using Bio-rad iScript Advanced cDNA synthesis kit for RT-qPCR. qPCR was performed using primers as shown in the Table 1 and iTaq™ Universal SYBR® Green Supermix in CFX PCR machine (Bio-rad). Relative mRNA expression was calculated based on the change of the threshold cycle relative to the internal control, (3-actin, using a standard curve generated by purified PCR products.

A further assay addresses ER-β (Homo sapiens, UniProt Q92731). Description: Hormone receptor signaling pathway selectivity: ER-β. Conditions: with E2.
The mark [2] stands for this setting: read-out: ER-α with ligand E2 (inhibition IC50).
Where [3] appears, read: read-out: AR with ligand DHT (inhibition IC50).
The mark [4] stands for this setting: read-out: VDRE with ligand VD3 (inhibition IC50).
Setting [5] is: read-out: ER-β with ligand E2 (inhibition IC50).
Setting [6] is: read-out: IC50, inhibition of DHT action on AR.
The mark [7] stands for this setting: read-out: IC50, inhibition of VD3 action on VDR.

Entries after “also recorded” stand apart in the source; their conditions may differ. Like-named read-outs stand apart in the source and are kept apart here. A value given as a limit tells only on which side of the number the result lay.

Chain of ER-β (Q92731 whole entry, species assumed): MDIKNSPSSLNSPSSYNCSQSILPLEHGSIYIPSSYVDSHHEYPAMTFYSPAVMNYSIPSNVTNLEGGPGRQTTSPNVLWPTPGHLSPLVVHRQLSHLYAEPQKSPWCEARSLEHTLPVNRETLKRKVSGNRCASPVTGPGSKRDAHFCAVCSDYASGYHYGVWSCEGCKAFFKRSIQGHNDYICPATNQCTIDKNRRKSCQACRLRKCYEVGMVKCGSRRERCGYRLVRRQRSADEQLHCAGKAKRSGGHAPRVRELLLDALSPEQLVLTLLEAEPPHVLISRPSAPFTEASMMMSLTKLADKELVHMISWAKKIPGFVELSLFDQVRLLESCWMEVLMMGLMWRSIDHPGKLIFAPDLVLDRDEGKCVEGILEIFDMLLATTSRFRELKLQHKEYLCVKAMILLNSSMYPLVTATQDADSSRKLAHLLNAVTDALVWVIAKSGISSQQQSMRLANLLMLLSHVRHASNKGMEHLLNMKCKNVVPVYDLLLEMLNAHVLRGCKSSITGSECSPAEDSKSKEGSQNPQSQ

Usually EC50 stands for the concentration that produces a half-maximal response. In general, IC50 refers to the concentration needed to halve the response being measured. Consider `C=C(CC[C@@H](C)[C@H]1CC[C@H]2C3=C(C(=O)[C@H](O)[C@]12C)[C@@]1(C)CC[C@@H](O)[C@@H](C)[C@@H]1CC3=O)[C@H](C)C(=O)O` [compound (II)], for which the “impact on other hormone receptor signaling pathways” value in assay [1] is “no impact”. For the same compound, the “induction of FXR activity / FXR mediated transcriptional response” value at FXR (HepG2 FXR-luciferase reporter cells) is on record as “act as agonists; also recorded: induce/enhance FXR activity”. Also, the EC50 on FXR was found to be 40 µM. The IC50 on ER-α (setting [2]), on AR (setting [3]), on VDR (setting [4]) and on ER-β (setting [5]) was above 80 µM throughout. The “BACS mRNA expression, fold lower than the CDCA induced BACS expression” value in the assay on BACS was “about 2 fold”.

For `C=C(CC[C@@H](C)[C@H]1CC[C@H]2C3=C(C(=O)C[C@]12C)[C@@]1(C)CCC(=O)[C@@H](C)[C@@H]1C[C@@H]3O)[C@H](C)C(=O)O` [compound (III)], the EC50 on FXR is above 80 µM. Moreover, the IC50 on ER-α (setting [2]), at AR (setting [3]), at VDR (setting [4]) and at ER-β (setting [5]) was above 80 µM throughout.

As for `C=C(CC[C@@H](C)[C@H]1CC[C@H]2C3=C(C(=O)C[C@]12C)[C@@]1(C)CCC(=O)[C@@H](C)[C@@H]1C[C@@H]3O)[C@@H](C)C(=O)O` [compound (IV)], the EC50 on FXR was above 80 µM. The IC50 at ER-α (setting [2]) was 70 µM; on ER-α (read-out: IC50, inhibition of E2 triggered ERα mediated transcriptional response), around 80 µM; at AR (setting [3]), above 80 µM; at VDR (setting [4]), above 80 µM; on ER-β (setting [5]), above 80 µM.

For the compound `C=C(CCC(C(=O)O)[C@H]1C[C@H](OC(C)=O)[C@@]2(C)C3=CC[C@H]4C(C)(C)[C@@H](O)CC[C@]4(C)C3=CC[C@]12C)C(C)C` (stereo partly shown) [compound (IX)], at FXR, the EC50 is above 80 µM. The IC50 on ER-α (setting [2]), at AR (setting [3]), at VDR (setting [4]) and on ER-β (setting [5]) was above 80 µM throughout.

Consider `CC(C)=CCCC(C(=O)O)C1CC(O)C2(C)C3=CCC4C(C)(CCC(O)C4(C)C)C3=CCC12C` (stereo not shown) [compound (V)], for which the EC50 on FXR was above 80 µM. Moreover, the IC50 at ER-α (setting [2]), on AR (setting [3]), on VDR (setting [4]) and at ER-β (setting [5]) was above 80 µM each time.

As to `C=C(CC[C@@H](C(=O)O)[C@H]1C[C@H](O)[C@@]2(C)C3=CC[C@H]4C(C)(C)C(O)CC[C@]4(C)C3=CC[C@]12C)C(C)C` (stereo partly shown) [compound (VI)], the EC50 at FXR is above 80 µM. Further, the IC50 on ER-α (setting [2]), on AR (setting [3]), on VDR (setting [4]) and at ER-β (setting [5]) was above 80 µM in each case.

For `C=C(CC[C@@H](C)[C@H]1CC[C@H]2C3=C(C(=O)C[C@]12C)[C@@]1(C)CCC(=O)[C@@H](C)[C@@H]1CC3=O)[C@H](C)C(=O)O` [compound (VII)], the EC50 on FXR was above 80 µM. For the same compound, the IC50 on ER-α (setting [2]) was above 80 µM; at AR (setting [6]) it was 40 µM; at VDR (setting [7]) it was 20 µM; at ER-β (read-out: IC50, inhibition of E2 action on ERβ), 40 µM.

`C=C(CC[C@@H](C)[C@H]1CC[C@H]2C3=C(C(=O)C[C@]12C)[C@@]1(C)CCC(=O)[C@@H](C)[C@@H]1CC3=O)[C@@H](C)C(=O)O` [compound (VIII)]: at FXR, the concentration for a half-maximal effect (EC50) was above 80 µM. The IC50 on ER-α (setting [2]) is above 80 µM; on AR (setting [6]) it was 25 µM; at VDR (setting [7]), 25 µM; at ER-β (setting [5]) it was above 80 µM.

`C=C(CCC(C(=O)O)C1CCC2(C)C3=CCC4C(C)(CCC(O)C4(C)C)C3=CCC12C)C(C)C` (stereo not shown) [compound (X)]: the EC50 on FXR is above 80 µM; at VDR, 1.5 µM. Besides, the IC50 on ER-α (setting [2]), at AR (setting [3]), at VDR (setting [4]) and on ER-β (setting [5]) was above 80 µM in each case.

For the compound `C=C(CC[C@@H](C)[C@H]1CC[C@H]2C3=C(CC[C@]12C)[C@@]1(C)CC[C@@H](O)C(C)(C)[C@@H]1C[C@@H]3O)[C@@H](C)C(=O)O` [compound (XI)], the EC50 at FXR is above 80 µM. Also, the IC50 on ER-α (setting [2]), on AR (setting [3]), at VDR (setting [4]) and on ER-β (setting [5]) was above 80 µM in each case.

As for `C=C(CCC(C(=O)O)C1CCC2(C)C3=C(CCC12C)C1(C)CCC(O)C(C)(C)C1CC3)C(C)C` (stereo not shown) [compound (XII)], the EC50 on FXR was above 80 µM; at VDR, 1.5 µM. For the same compound, the IC50 at ER-α (setting [2]), on AR (setting [3]), at VDR (setting [4]) and on ER-β (setting [5]) was above 80 µM throughout.
